Experimental data reported in patent publication US20240083875A1, “DIHYDROISOQUINOLINYL DERIVATIVES” (UCB BIOPHARMA SRL, priority 2020, published 2024).

Legend:
dopamine D1 receptor = target: T1, dopamine D1 receptor (Homo sapiens, UniProt P21728); assay: cAMP HTRF potentiation assay (PAM, in the presence of EC20 dopamine); type: cell-based; details: for Erel (%): maximal % potentiation relative to dopamine maximal response (100%), EC20 dopamine, LMtk cells expressing D1 receptor; for EC50: potentiation of cAMP levels with EC20 dopamine (1.1 nM), LMtk mouse fibroblast cells expressing D1 receptor
T1 construct: host or cells: LMtk (Ltk-) mouse fibroblast cells
T1 sequence (P21728 whole entry): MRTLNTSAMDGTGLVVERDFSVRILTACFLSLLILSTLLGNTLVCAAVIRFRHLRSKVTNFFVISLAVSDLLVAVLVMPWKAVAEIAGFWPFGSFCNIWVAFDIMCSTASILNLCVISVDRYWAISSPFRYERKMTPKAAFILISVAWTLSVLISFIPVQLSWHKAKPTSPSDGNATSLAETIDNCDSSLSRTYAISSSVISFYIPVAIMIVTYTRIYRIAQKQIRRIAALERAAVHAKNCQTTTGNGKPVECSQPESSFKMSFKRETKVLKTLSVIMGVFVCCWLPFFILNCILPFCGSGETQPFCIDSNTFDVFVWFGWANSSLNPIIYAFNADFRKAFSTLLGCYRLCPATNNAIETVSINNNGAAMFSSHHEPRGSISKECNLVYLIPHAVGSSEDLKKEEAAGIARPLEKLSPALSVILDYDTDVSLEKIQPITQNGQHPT
Procedure: The potentiation assay measures the ability of compounds to increase the levels of cAMP produced by a low-threshold concentration of dopamine. The concentration of dopamine used ([EC20]) is designed to produce 20% stimulation compared to the maximal response (100%) seen with increasing the concentration of dopamine. To measure this potentiation increasing concentrations of the compound with the [EC20] of dopamine are incubated and the potentiation is measured as increases in cAMP production and concentration of compound which produces 50% of the potentiation of the cAMP levels is measured.
Cells were cultured at 37° C. in a humidified atmosphere of 5% CO2. Cells were grown in DMEM-F12+GlutaMAX™-I medium (GIBCO®, Invitrogen, Merelbeke, Belgium) containing 10% fetal bovine serum (BioWhittaker®, Lonza, Verviers, Belgium), 400 μg/mL Geneticin (GIBCO®), 100 IU/mL Penicillin and 100 IU/mL Streptomycin (Pen-Strep solution, BioWhittaker®).
The measurement of changes in intracellular cyclic adenosinemonophopshpate (cAMP) was determined using the HTRF cAMP dynamic assay kit from CisBio (Codolet, France). Using homogenous time-resolved fluoresence technology, the assay is based on competition between native cAMP produced by cells and cAMP labelled with the dye d2. The tracer binding is determined by an anti-cAMP antibody labeled with cryptate. The effects of the compound alone (agonism) was determined by performing the assay in the absence of dopamine, whilst the effect of the compound as a positive allosteric modulator (PAM) was determined in the presence of an EC20 concentration of dopamine. Cells (20,000 per well) are incubated in 384 plates for 1 hour at room temperature in a final volume of 20 μLHBSS (Lonza, with calcium, magnesium and HEPES buffer 20 mM, pH 7.4) containing: isobutyl methylxanthine (Sigma, 0.1 mM final), varying concentrations of test compound (typically 10^−9.5M to […]) in the presence and absence of dopamine (1.1 nM final). The reaction is then terminated and the cells lysed by adding the d2 detection reagent in lysis buffer (10 microL) and the cryptate reagent in lysis buffer (10 microl) according to manufacturer's instructions. This is then incubated for a further 60 min at room temperature and changes in HTRF fluorescent emission ratio determined according to manufacturer's instructions using an Envision plate reader (Perkin Elmer, Zaventem, Belgium) with laser excitation. All incubations were performed in duplicate and results were compared to a concentration-effect curve to dopamine. (10^−11 M to 10^−6 M).
Data was analyzed using Excel and PRISM (GraphPad Software) to obtain pEC50 and Erel using the 4-parameter logistic equation (DeLean et al, 1978) where Erel is the fitted maximal response of the test compound minus basal expressed as a percentage relative to that obtained with dopamine which was defined as 100%.
The pEC50 of a compound is the −log10 of the concentration of the compound which produces 50% of the potentiation of the cAMP levels.
The Erel is the relative efficacy, defined as the maximal % potentiation produced by the compound compared to the maximal response produced by increasing concentrations of dopamine (Erel of 1=dopamine maximum response), has been measured.

[1] = target: T2, human GABAA receptor α1, β2 and γ2 subunits (Homo sapiens, UniProt P14867+P18507+P47870); assay: Automated patch clamp studies on the GABAA receptor (IonFlux HT); type: cell-based; details: 10 μM compound; 15 μM GABA as agonist; CHO-K1 cells expressing human GABAA α1β2γ2
T2 construct: expressed in transfected cells
T2 sequence (P14867 28-456): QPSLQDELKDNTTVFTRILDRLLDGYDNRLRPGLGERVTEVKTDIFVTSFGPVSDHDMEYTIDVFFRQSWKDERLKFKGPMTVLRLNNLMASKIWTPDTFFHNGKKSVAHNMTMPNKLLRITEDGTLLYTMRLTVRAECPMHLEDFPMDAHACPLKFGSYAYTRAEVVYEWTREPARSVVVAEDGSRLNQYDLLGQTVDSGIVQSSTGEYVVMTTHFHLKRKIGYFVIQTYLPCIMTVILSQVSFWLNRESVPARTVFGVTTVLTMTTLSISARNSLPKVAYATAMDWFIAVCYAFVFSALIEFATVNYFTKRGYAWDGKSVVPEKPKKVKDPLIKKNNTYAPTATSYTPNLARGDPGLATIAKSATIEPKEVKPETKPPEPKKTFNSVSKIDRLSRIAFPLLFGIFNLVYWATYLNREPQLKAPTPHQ
T2 sequence (P47870 25-512 limits assumed): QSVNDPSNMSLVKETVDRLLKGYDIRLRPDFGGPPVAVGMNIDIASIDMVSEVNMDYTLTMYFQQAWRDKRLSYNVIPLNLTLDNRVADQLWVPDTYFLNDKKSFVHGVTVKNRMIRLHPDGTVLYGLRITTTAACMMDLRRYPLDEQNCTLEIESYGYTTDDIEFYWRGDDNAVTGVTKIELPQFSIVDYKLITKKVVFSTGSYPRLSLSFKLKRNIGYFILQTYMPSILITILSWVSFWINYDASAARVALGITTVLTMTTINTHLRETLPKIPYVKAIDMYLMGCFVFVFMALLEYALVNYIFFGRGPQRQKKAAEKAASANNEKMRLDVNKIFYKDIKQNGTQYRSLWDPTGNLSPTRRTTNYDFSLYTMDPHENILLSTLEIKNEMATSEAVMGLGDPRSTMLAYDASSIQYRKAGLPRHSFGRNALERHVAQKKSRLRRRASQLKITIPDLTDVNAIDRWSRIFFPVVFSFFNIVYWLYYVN
T2 sequence (P18507 40-475): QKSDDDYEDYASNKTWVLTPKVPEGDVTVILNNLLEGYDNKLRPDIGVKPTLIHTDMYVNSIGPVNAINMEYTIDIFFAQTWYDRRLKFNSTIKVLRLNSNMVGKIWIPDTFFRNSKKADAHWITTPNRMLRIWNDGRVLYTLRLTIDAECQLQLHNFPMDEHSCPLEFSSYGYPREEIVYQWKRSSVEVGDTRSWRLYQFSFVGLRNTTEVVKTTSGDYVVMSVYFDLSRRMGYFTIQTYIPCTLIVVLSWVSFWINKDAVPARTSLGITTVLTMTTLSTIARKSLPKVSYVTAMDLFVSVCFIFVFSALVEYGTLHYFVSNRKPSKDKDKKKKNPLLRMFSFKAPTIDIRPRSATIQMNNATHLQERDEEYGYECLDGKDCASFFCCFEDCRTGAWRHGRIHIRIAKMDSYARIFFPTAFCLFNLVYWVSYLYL
Procedure: CHO-K1 cells stably expressing human GABAA receptor α1, β2 and γ2 subunits were used. The cells were harvested using trypsin and maintained in serum-free medium at room temperature. The cells were washed and re-suspended in extracellular solution before testing.
Experiments on human GABAA (α1β2γ2) channels were conducted using an automated patch clamp assay (IonFlux™ HT). Compounds were tested at 3 concentrations (0.1, 1, and 10 μM) in 3 to 4 cells. The external solution for recording GABAA currents was composed of sodium chloride 137 mM, potassium chloride 4 mM, calcium chloride 1.8 mM, magnesium chloride 1 mM, HEPES 10 mM, and glucose 10 mM. Both external and internal solutions were titrated with NaOH or KOH to obtain a pH of 7.35 or 7.3, respectively. The internal pipette solution contained potassium fluoride 70 mM, potassium chloride 60 mM, sodium chloride 70 mM, HEPES 5 mM, EGTA 5 mM, and Magnesium ATP 4 mM. The final concentration of vehicle used to dilute compounds was 0.33% DMSO in each well. Bicuculline (0.032 to 100 μM) was used as positive control inhibitor. GABA (15 μM) was used as agonist. All recordings were obtained from a holding potential of −60 mV.
The compound addition sequence was the following: one addition of the EC80 concentration of GABA was added to establish baseline response. Each concentration of compound was applied for 30 seconds followed by the addition of 15 μM GABA in the presence of the compound for 2 seconds. The process was repeated with the next ascending concentration of compound. Peak inward currents in response to the GABA additions in the presence of a single concentration of compound were measured. All compound data have been normalized to the baseline peak current induced by addition of 15 μM GABA for 2 seconds.

| Erel (%) (dopamine D1 receptor) | EC50 (dopamine D1 receptor) [nM] | inhibition at 10 µM [1] [%] | SMILES |
| --- | --- | --- | --- |
| 74 | 12.6 | 2.7 | C[C@H]1c2cccc(-c3cnn(C)c3)c2C[C@H](CO)N1C(=O)Cc1c(Cl)ccc2c1c(Cl)nn2C [Example 1, 2-(3,5-dichloro-1-methyl-indazol-4-yl)-1-[(1S,3R)-3-(hydroxymethyl)-1-methyl-5-(1-methylpyrazol-4-yl)-3,4-dihydro-1H-isoquinolin-2-yl]ethanone] |
| 71 | 6.31 | 0 | C[C@H]1c2cccc(-c3cn[nH]c3)c2C[C@H](CO)N1C(=O)Cc1c(Cl)ccc2c1c(Cl)nn2C [Example 2, 2-(3,5-dichloro-1-methyl-indazol-4-yl)-1-[(1S,3R)-3-(hydroxymethyl)-1-methyl-5-(1H-pyrazol-4-yl)-3,4-dihydro-1H-isoquinolin-2-yl]ethanone] |
| 61 | 6.31 | 7.8 | C[C@H]1c2cccc(-c3cn[nH]c3)c2C[C@H](CO)N1C(=O)Cc1c(Cl)ccc2[nH]nc(Cl)c12 [Example 3, 2-(3,5-dichloro-1H-indazol-4-yl)-1-[(1S,3R)-3-(hydroxymethyl)-1-methyl-5-(1H-pyrazol-4-yl)-3,4-dihydro-1H-isoquinolin-2-yl]ethanone] |
| 63 | 7.94 | 10.1 | C[C@H]1c2cccc(-c3cnn(C)c3)c2C[C@H](CO)N1C(=O)Cc1c(Cl)ccc2[nH]nc(Cl)c12 [Example 4, 2-(3,5-dichloro-1H-indazol-4-yl)-1-[(1S,3R)-3-(hydroxymethyl)-1-methyl-5-(1-methylpyrazol-4-yl)-3,4-dihydro-1H-isoquinolin-2-yl]ethanone] |
